# Measurements published in US12570988B2, “Aptamers that bind thiamine analogs and derivatives” (MeiraGTx Gene Regulation Limited, priority 2020, dated 2026).
# Columns and labels:
# [1] = tested on: riboswitch comprising aptamer 6B4
# Description: (§1) Riboswitch constructs: Alternative splicing riboswitches containing aptamers 3H4 or 15D10, respectively, were inserted at position 308 into the mouse erythropoietin cDNA sequence in construct Con8-Epo (SEQ ID NO:85), resulting in constructs Epo-3H4 (SEQ ID NO:86) and Epo-15D10 (SEQ ID NO:87). Expression of the erythropoietin gene was driven by a cytomegalovirus (CMV) promoter. The riboswitch cassette containing aptamer 6B4 was inserted at position 276 into the cDNA sequence encoding enhanced green fluorescent protein (EGFP) in vector pEGFP-C1 to generate the EGFP-6B4 construct (SEQ ID NO:88). The intron-exon-intron cassette without aptamer sequence was inserted into Con8-Epo to create construct Epo-Con1 (SEQ ID NO:89), serving as a control for constitutive target gene expression.
# riboswitch 15D10 [2] = assay: Luciferase reporter with 15D10 riboswitch (Luci-15D10) in AML12 cells; type: cell-based, mouse
# [3] = tested on: riboswitch comprising aptamer 15D10; conditions: 12.5 μM, AML12 cells
# Description: as §1
# (§2) Enzyme-linked immunosorbent assay (ELISA) for mouse erythropoietin: AML12 cells were transfected as described in Example 1 with TransIT-X2 transfection reagent (Mirus Bio). Four hours after transfection, AML12 cells were treated with or without fursultiamine at the indicated doses. The supernatants from the transfected cells were collected 24 hours after fursultiamine treatment and were subjected to ELISA for the detection of mEpo in the supernatant following the manufacturer's instruction (R&D).
# [4] = tested on: riboswitch comprising aptamer 3H4; conditions: 12.5 μM; AML12 cells; versus absence of fursultiamine
# Description: as §1, §2
# riboswitch 15D10 [5] = assay: Luciferase reporter with 15D10 riboswitch (Luci-15D10) in HEK 293 cells; type: cell-based, human; conditions: Homo sapiens, HEK293, 24 h, read-out: Fold increase in riboswitch 15D10-regulated luciferase expression, HEK
# In short: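 Cells transfected with riboswitch-luciferase plasmid; 4 h later medium replaced with TPP or thiamine analogs (fursultiamine, prosultiamine, bisbentiamine, beclotiamine, sulbutiamine) as inducers.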
# [6] = tested on: riboswitch TPPz (A. tabrizica thiC TPP aptamer); assay: Luciferase reporter with TPPz riboswitch in HEK 293 cells; type: cell-based, human; conditions: FIG. 1
# Description: (§3) Riboswitch constructs: Aptamers were synthesized by Integrated DNA Technologies, Inc. and Golden Gate cloning strategy (New England Biolabs, NEB) was used to clone the synthesized aptamer sequences into intron-exon-intron cassette to replace the guanine aptamer in the G17 riboswitch cassette (see SEQ ID NO: 15 recited in WO 2016/126747, which is incorporated herein in its entirety) with a TPP aptamer from the Alishewanella tabrizica thiC gene (Microbiol Res. 2017 January; 195:71-80) or a TPP aptamer from the Escherichia coli thiM gene (Structure. 2006 September; 14(9):1459-68), generating riboswitch TPPz and TPPm, respectively.
# (§4) Transfection: 3.5×10^4 human embryonic kidney (HEK) 293 cells were plated in a 96-well flat bottom plate the day before transfection. Plasmid DNA (500 ng) was added to a tube or a 96-well U-bottom plate. Separately, TransIT-293 reagent (Mirus; 1.4 μL) was added to 50 μL Optimem I media (Life Technologies) and allowed to sit for 5 minutes at room temperature (RT). Then, 50 μL of this diluted transfection reagent was added to the DNA, mixed, and incubated at RT for 20 min. Finally, 7 μL of this solution was added to a well of cells in the 96-well plate. Four hours after transfection, medium containing transfection solution was replaced by medium containing either TPP, fursultiamine, prosultiamine, bisbentiamine, beclotiamine hydrochloride, or sulbutiamine as aptamer inducers.
# (§5) Firefly luciferase assay of cultured cells: Twenty-four hours after media change, plates were removed from the incubator, and equilibrated to RT for several minutes on a lab bench, then aspirated. Glo-lysis buffer (Promega, 100 μL, RT) was added, and the plates allowed to remain at RT for at least 5 minutes. Then, the well contents were mixed by 50 μL trituration, and 20 μL of each sample was mixed with 20 μL of bright-glo reagent (Promega) that had been diluted to 10% in glo-lysis buffer. 96 wells were spaced on an opaque white 384-well plate. Following a 5 min incubation at RT, luminescence was measured using a Tecan machine with 500 ms read time. The luciferase activity was expressed as mean arbitrary light units (ALU)±S.D., and fold induction was calculated as the quotient of the luciferase activity obtained from cells with TPP or analog treatment divided by the luciferase activity obtained from cells without TPP or analog treatment.
# [7] = tested on: riboswitch TPPm (E. coli thiM TPP aptamer); assay: Luciferase reporter with TPPm riboswitch in HEK 293 cells; type: cell-based, human; conditions: FIG. 1
# Description: as §3, §4, §5
# [8] = tested on: riboswitch comprising aptamer 15A5; assay: Luciferase reporter with 15A5 riboswitch in AML12 cells; type: cell-based, mouse; conditions: FIG. 6B
# 14G4 riboswitch = conditions: HEK 293 cells; dose dependent; FIG. 2
# Description: Riboswitch construction: TPP aptamer homologous sequences were obtained from Rfam 12.0 (https://rfam.xfam.org/) and synthesized (Twister Biotech).
# To identify aptamers with increased gene regulation activity in response to thiamine analogs as compared to TPPz and TPPm, a putative TPP aptamer with homologous sequence was obtained from Rfam 12.0 (RNA family database RF00059, http://rfam.xfam.org/family/RF00059).
compound,measurement,setting,value
CC(=C(CCO)SSCC1CCCO1)N(C=O)Cc1cnc(C)nc1N (stereo in doubt) [fursultiamine],increase in EGFP expression,[1],14 fold
same,"luciferase regulation in response to ligand, riboswitch 15D10","riboswitch 15D10 [2]; AML12 cells, FIG. 6B",robustly regulate luciferase expression
same,fold induction at 50 µM,"riboswitch 15D10 [2]; Mus musculus, AML12, 24 h, read-out: Fold increase in riboswitch 15D10-regulated luciferase expression, AML",315
same,level of mEpo from mEpo-15D10 relative to constitutive mEpo-Con1 construct,[3],approximately 61.3%
same,"induction of mEpo expression, Epo-15D10",[3]; versus absence of fursultiamine,about 40 fold
same,"induction of mEpo expression, Epo-3H4",[4],~9 fold
same,fold induction at 50 µM,riboswitch 15D10 [5],446
same,"effect on luciferase expression, riboswitch TPPz",[6],induce luciferase expression
same,"effect on luciferase expression, riboswitch TPPm",[7],induce luciferase expression
same,"luciferase regulation in response to ligand, riboswitch 15A5",[8],robustly regulate luciferase expression
same,"increase in luciferase expression, 14G4 riboswitch",14G4 riboswitch,100 fold
